Laboratory results from USRE48097E1, “Cephem compounds, their production and use” (priority 2015, dated 2020).
In brackets after ≈: the same amount, converted by molar mass. Read-outs that look alike come from different tables or passages of the source.

What was measured:
Type in all cases: cell-based
[1] = tested on: S. aureus 3136; assay: MIC against S. aureus 3136; details: Table 2, S. aureus 3136, MSSA
Source text: (§1) Without limitation, the present cephem compounds alone, or in combination with one or more β-lactamase inhibitors, may provide improved antibacterial efficacy, particularly in antibiotic-resistant bacterial strains. It is believed that the present compounds may be structurally different from known compounds and, as a result, may be more basic in nature. It is an advantage that the present compounds may extend the spectrum of effective bacterial compounds, particularly against previously-resistant bacteria (e.g. ESKAPE organisms), and/or gram negative bacteria, without significant side effects. In a preferred embodiment, the present cephem compound may comprise reference compound ceftazidime, which may be used alone, or in combination with one or more β-lactamase inhibitors, such as NXL-104. As shown, the foregoing composition was tested for minimum inhibitory concentration (MIC, μg/mL) against bacteria listed in Tables 2-3.

[2] = tested on: S. aureus 3144; assay: MIC against S. aureus 3144; details: Table 2, S. aureus 3144, MSSA
Source text: as §1

[3] = tested on: S. pneumoniae ATCC 6301; assay: MIC against S. pneumoniae ATCC 6301; details: Table 2, S. pneumoniae ATCC 6301, Pen S
Source text: as §1

[4] = tested on: S. pneumoniae 2492; assay: MIC against S. pneumoniae 2492; details: Table 2, S. pneumoniae 2492, Pen R
Source text: as §1

[5] = tested on: S. pneumoniae 2493; assay: MIC against S. pneumoniae 2493; details: Table 2, S. pneumoniae 2493, Pen R
Source text: as §1

[6] = tested on: S. pneumoniae 2404; assay: MIC against S. pneumoniae 2404; details: Table 2, S. pneumoniae 2404, Pen S
Source text: as §1

[7] = tested on: S. pneumoniae 2405; assay: MIC against S. pneumoniae 2405; details: Table 2, S. pneumoniae 2405, Pen S
Source text: as §1

[8] = tested on: S. pneumoniae 2406; assay: MIC against S. pneumoniae 2406; details: Table 2, S. pneumoniae 2406, Pen S
Source text: as §1

[9] = tested on: S. pneumoniae 2407; assay: MIC against S. pneumoniae 2407; details: Table 2, S. pneumoniae 2407, Pen S
Source text: as §1

[10] = tested on: E. cloacae 2044; assay: MIC against E. cloacae 2044; details: Table 2, E. cloacae 2044, Caz S, IMP S
Source text: as §1

[11] = tested on: C. freundii 579; assay: MIC against C. freundii 579; details: Table 2, C. freundii 579, Caz R, IMP S
Source text: as §1

[12] = tested on: C. freundii 580; assay: MIC against C. freundii 580; details: Table 2, C. freundii 580, Caz R, IMP S
Source text: as §1

[13] = tested on: K. pneumoniae 4108; assay: MIC against K. pneumoniae 4108; details: K. pneumoniae 4108, KPC-3, TEM-166, SHV-12, SHV-141
Method: (§2) As shown, the foregoing composition was tested for minimum inhibitory concentration (MIC, μg/mL) against bacteria listed in Tables 2-3.

[14] = tested on: K. pneumoniae 2689; assay: MIC against K. pneumoniae 2689; details: K. pneumoniae 2689, KPC-2
Method: as §2

[15] = tested on: E. coli 2671; assay: MIC against E. coli 2671; details: Table 2, E. coli 2671, VIM-19
Source text: as §1

[16] = tested on: E. coli 4080; assay: MIC against E. coli 4080; details: Table 2, E. coli 4080, TEM-10
Source text: as §1

[17] = tested on: E. coli 4098; assay: MIC against E. coli 4098; details: Table 2, E. coli 4098, CTX-M-15, TEM-1
Source text: as §1

[18] = tested on: K. baumanii 2579; assay: MIC against K. baumanii 2579; details: Table 2, K. baumanii 2579, OXA-25
Source text: as §1

[19] = tested on: K. baumanii 4091; assay: MIC against K. baumanii 4091; details: Table 2, K. baumanii 4091, OXA-23
Source text: as §1

[20] = tested on: E. coli 2668; assay: MIC against E. coli 2668; details: Table 2, E. coli 2668, OXA-48
Source text: as §1

[21] = tested on: E. cloacae 2706; assay: MIC against E. cloacae 2706; details: Table 3, E. cloacae 2706, VIM-1, KPC-3
Method: as §2

[22] = tested on: E. cloacae 2710; assay: MIC against E. cloacae 2710; details: Table 3, E. cloacae 2710, KPC-3, VIM-1
Method: as §2

[23] = tested on: K. pneumoniae 2713; assay: MIC against K. pneumoniae 2713; details: Table 3, K. pneumoniae 2713, KPC-3, VIM-1
Method: as §2

[24] = tested on: P. aeruginosa 2686; assay: MIC against P. aeruginosa 2686; details: Table 3, P. aeruginosa 2686, KPC-2
Method: as §2

[25] = Staphylococcus aureus, alone, read-out: MIC
[26] = Streptococcus pneumoniae, alone, read-out: MIC
[27] = Enterobacter cloacae, alone, read-out: MIC
[28] = Citrobacter freundii, alone, read-out: MIC
[29] = Table 2, in combination with NXL-104
[30] = Table 3, in combination with NXL-104
[31] = Escherichia coli, alone, read-out: MIC

- MIC [1, 25]: 2 µg/mL
- MIC ([1]; in combination with NXL-104): 2.00 µg/mL
- MIC [2, 25]: 4 µg/mL
- MIC ([2]; in combination with NXL-104): 4.00 µg/mL
- MIC ([3]; Streptococcus pneumoniae, ATCC6301, alone, read-out: MIC): ≤ 0.06 µg/mL
- MIC ([3]; in combination with NXL-104): ≤0.06 µg/mL
- MIC [4, 26]: 2 µg/mL
- MIC ([4]; in combination with NXL-104): 2.00 µg/mL
- MIC [5, 26]: 2 µg/mL
- MIC ([5]; in combination with NXL-104): 2.00 µg/mL
- MIC [6, 26]: ≤ 0.06 µg/mL
- MIC ([6]; in combination with NXL-104): ≤0.06 µg/mL
- MIC [7, 26]: ≤ 0.06 µg/mL
- MIC ([7]; in combination with NXL-104): ≤0.06 µg/mL
- MIC [8, 26]: ≤ 0.06 µg/mL
- MIC ([8]; in combination with NXL-104): ≤0.06 µg/mL
- MIC [9, 26]: ≤ 0.06 µg/mL
- MIC ([9]; in combination with NXL-104): ≤0.06 µg/mL
- MIC [10, 27]: 0.5 µg/mL
- MIC ([10]; in combination with NXL-104): 0.12 µg/mL
- MIC [11, 28]: 4 µg/mL
- MIC ([11]; in combination with NXL-104): 0.25 µg/mL
- MIC [12, 28]: 8 µg/mL
- MIC ([12]; in combination with NXL-104): 0.25 µg/mL
- MIC ([13]; Klebsiella pneumoniae, 4108, Table 2, alone, read-out: MIC): 8 µg/mL (≈ 11.1 µM)
- MIC ([13]; Klebsiella pneumoniae, 4108, Table 3, alone, read-out: MIC): 32 µg/mL (≈ 44.2 µM)
- MIC [13, 29]: 0.50 µg/mL
- MIC [13, 30]: 1 µg/mL
- MIC ([14]; Klebsiella pneumoniae, 2689, Table 2, alone, read-out: MIC): 8 µg/mL (≈ 11.1 µM)
- MIC ([14]; Klebsiella pneumoniae, 2689, Table 3, alone, read-out: MIC): 8 µg/mL (≈ 11.1 µM)
- MIC [14, 29]: 1.00 µg/mL
- MIC [14, 30]: 1 µg/mL
- MIC [15, 31]: 16 µg/mL
- MIC ([15]; in combination with NXL-104): 16.00 µg/mL
- MIC [16, 31]: 16 µg/mL
- MIC ([16]; in combination with NXL-104): 0.50 µg/mL
- MIC [17, 31]: > 32 µg/mL
- MIC ([17]; in combination with NXL-104): 0.12 µg/mL
- MIC ([18]; alone, read-out: MIC): > 32 µg/mL
- MIC ([18]; in combination with NXL-104): 8.00 µg/mL
- MIC ([19]; alone, read-out: MIC): 8 µg/mL
- MIC ([19]; in combination with NXL-104): 2.00 µg/mL
- MIC [20, 31]: 1 µg/mL
- MIC ([20]; in combination with NXL-104): ≤0.06 µg/mL
- MIC [21, 27]: > 32 µg/mL
- MIC ([21]; in combination with NXL-104): 32 µg/mL
- MIC [22, 27]: > 32 µg/mL
- MIC ([22]; in combination with NXL-104): >32 µg/mL
- MIC ([23]; Klebsiella pneumoniae, alone, read-out: MIC): > 32 µg/mL
- MIC ([23]; in combination with NXL-104): 2 µg/mL
- MIC ([24]; Pseudomonas aeruginosa, alone, read-out: MIC): 32 µg/mL (≈ 44.2 µM)
- MIC ([24]; in combination with NXL-104): 8 µg/mL
SMILES: CC(C)(O/N=C(\C(=O)N[C@@H]1C(=O)N2C(C(=O)[O-])=C(C[n+]3ccc4c(ccn4Cc4cc(C(=N)N)cs4)c3)CS[C@H]12)c1csc(N)n1)C(=O)O [Example 5, (6R,7R)-7-{[(2Z)-2-(2-Amino-1,3-thiazol-4-yl)-2-{[(2-carboxypropan-2-yl)oxy]imino}acetyl]amino}-3-({1-[(4-carbamimidoylthiophen-2-yl)methyl]-1H-pyrrolo[3,2-c]pyridin-5-ium-5-yl}methyl)-8-oxo-5-thia-1-azabicyclo[4.2.0]oct-2-ene-2-carboxylate]
